Structures can show the parent of a compound that is named as a salt.

Experiment [1] has as its system NB-1 cells (a human neuroblastoma strain). Nature of the experiment: Differentiation inducing effect for NB-1 cells. The experiment is classed as cell-based. As to conditions: 4-hour incubation. The protocol:
The differentiation inducing effect for the NB-1 cells (a human neuroblastoma strain: cell strain derived from neuroblastoma generated in infantile adrenal gland) was examined. The NB-1 cells were applied to a 96-well plate at a rate of 2×10^3 cells/well and precultured for 3 days. After attachment and growth were stabilized, the medium (RPMI 1640+10% fetal calf serum+SM.PC) was exchanged and a 10 μl solution of each test compound was added. Then, the cells were kept under constant observation to determine the occurrence or non-occurrence of differentiation. 2 mM (1.037 mg/ml) of dibutyryl cAMP dissolved in RPMI 1640 was used as positive control. NKH-477 and 14,15-dihydro-6-(3-dimethylaminopropionyl)forskolin hydrochloride were dissolved in a physiological saline. Forskolin was dissolved in DMSO and diluted with a physiological saline. The criterion for judgment of morphological change in differentiation is as follows. The figures in the parentheses are the ratio of the differentiated cells to the whole cells. It was confirmed that DMSO was totally devoid of differentiation inducing and promoting action at the concentrations used in this test.

In a further experiment the test system is femoral blood flow. The experiment in a line: Effect on femoral blood flow in anesthetized dogs. The experiment is classed as in vivo, dog. As to conditions: for Increase in femoral blood flow rate: mean ± SE. The method, then: (1) Effect on femoral blood flow in anesthetized dogs was tested.
A non-cannulating probe (FF-030T mfd. by Nihon Kohden K. K.) of an electromagnetic flow meter (MFV-2100 mfd. by Nihon Kohden K. K.) was placed around the left femoral artery of a dog anesthetized with pentobarbital to measure femoral bloow flow rate. The femoral blood flow rate was recorded on an ink-written recorder (WI-681G by Nihon Kohden K. K.).
NKH-477 was dissolved in a physiological saline and injected into the right cephalic vein through a Nelaton's tube.

Experiment [2] relates to whole-stratum skin cut-off model (skin ulcer). The experiment in a line: Remedial effect for skin ulcer, whole-stratum skin cut-off model in rats. The experiment is classed as in vivo, male Wister rats. To be noted: for Lesion reduction rate in whole-stratum skin cut-off model: 1 ml of 1 mg/ml applied daily, mean, n = 2. The method, then:
The remedial effect of NKH-477 for skin ulcer was ascertained by the following test.
The abdominal region of each of the test animals--male Wister rats (10 weeks old and weighing 350-390 g) divided into groups of 2--was […] and a piece of skin of about 3 cm in diameter was cut off from said abdominal region of each test rat under anesthesia with pentobarbital (40 mg/kg, i.p.) to prepare a whole-stratum skin cut-off model, and it was used as a skin ulcer model. NKH-477 was used as the test compound (specimen) while a physiological saline was used as control. The specimen was dissolved in a physiological saline (1 mg/ml), and 1 ml of the solution was applied directly to the affected region every day, the treated part being covered with gauze fixed in position. The areas of lesion after the lapse of 1 day, 2 days, 3 days and 5 days from start of application of the specimen solution were measured by a digitizer to determine the lesion reduction rate, from which the skin ulcer curative effect of the test compound was evaluated.

The subject of experiment [3] is ADP-induced aggregation of rabbit blood thrombocyte. Nature of the experiment: ADP-induced platelet aggregation inhibition, rabbit platelet rich plasma. As to conditions: Oryctolagus cuniculus, rabbit PRP, ADP 3×10^-6 M, mean, n = 5, read-out: Platelet aggregation inhibitory action (IC50), ADP-induced aggregation. Type of experiment: cell-based. The method, then: The platelet aggregation inhibitory action of NKH-477 was examined on collagen-induced aggregation and ADP-induced aggregation of rabbit blood thrombocyte. The male Japanese white rabbits (body weight: 2.4-2.8 kg, procured from Tokyo Experimental Animals Co., Ltd.) were divided into groups of 5. The rabbits were etherized and blood was collected from the carotid artery of each rabbit. A 3.8% sodium citrate solution (final concentration: 0.38%) was added to a portion of blood collected from each group of rabbits to obtain platelet rich plasma (PRP). The remaining portion of blood was centrifuged at 3,000 r.p.m. for 15 minutes to obtain platelet poor plasma (PPP). First, permeability of PRP and PPP was determined by using an aggregometer (RMA-31 mfd. by Rika Denki Kogyo K. K.) and set at 0% and 100%, respectively. Separately from the above operation, 250 μl of PRP was placed in a cuvette and after preliminary heating at 37° C. for 2 minutes, 20 μl of specimen was added and incubated under stirring for 2 minutes. Then 10 μl of ADP (Sigma, final conc.: 3×10^-6 M) or collagen (Hormon-Chemie, final conc.: 10 μg/ml) was added and the transmission rate was measured. The maximum transmission rate observed in this operation was termed as the maximum aggregation rate. Recording in this operation was conducted on an ink-written recorder (B-381L mfd. by Rika Denki Kogyo K. K.). […]

The next experiment concerns canine coronary artery. Nature of the experiment: Spasmolytic effect on KCl-induced contraction, canine coronary artery ring. As to conditions: for Inhibition rate, Coronary artery: 30 mM KCl, papaverine 10^-4 M = 100%, mean ± SE, n = 6. The protocol:
The canine coronary and basilar arteries were extirpated under anesthesia with pentobarbital to prepare the 3 mm wide ring preparation. Each preparation was suspended in a 10-ml organ bath filled with a Krebs-Henseleit solution by applying a static tension of 1.5 g (for the coronary artery) and 1.0 g (for the basilar artery). The nutrient solution was maintained at 37° C. and aerated with a 95% 02 /5% CO2 gas. The isometric mascular tension was measured with an FD pickup (TB-611T mfd. by Nihon Kohden K. K.) and recorded on a recorder (TI-104 mfd. by Tokai IRIKA K. K.).
After about 2 hours of equilibrium time, contraction was induced with 30 mM of KCl (for coronary artery) and 35 mM of KCl (for basilar artery), and after contraction was stabilized, NKH-477 was administered cumulatively. The spasmolytic effect was expressed as percentages of the inhibition, with the maximal inhibition obtained with papaverine hydrochloride (10^-4 M) being supposed to have shown 100% inhibition.

Experiment [4] has as its system epinephrine-induced aggregation. Nature of the experiment: Epinephrine-induced aggregation after intravenous administration to healthy adults. Type of experiment: in vivo, healthy adults (human). To be noted: i.v. 0.8 μg/kg/min for one hour, mean of four subjects. The method, then: A freeze-dried preparation comprising NKH-477 was dissolved in a physiological saline and administered intravenously to four healthy adults at a rate of 0.8 μg/kg/min for one hour. The degrees of ADP-induced aggregation, epinephrine-induced aggregation and collagen-induced aggregation upon end of administration were measured and compared with those before administration (each figure is the average of measurements on the four subjects).

For the compound `C=C[C@@]1(C)CC(=O)[C@]2(O)[C@@]3(C)[C@@H](O)CCC(C)(C)[C@@H]3[C@H](OC(=O)CCN(C)C)[C@H](OC(C)=O)[C@@]2(C)O1` [NKH-477, 6-(3-dimethylaminopropionyl)forskolin hydrochloride], the “Effect (differentiation inducing)” value in experiment [1] (Dose 1.56 μM) was “± (slight (<20%))”; in experiment [1] (Dose 6.25 μM), “++ (heavy (>80%))”; in experiment [1] (Dose 25.00 μM), “++ (heavy (>80%))”; in experiment [1] (Dose 100.00 μM), “++ (heavy (>80%))”. Further, the “Increase in femoral blood flow rate” value turned out to be 7.6% in the experiment on femoral blood flow (1 μg/kg i.v., n = 6 (SE 2.9 printed)); 22.9% in the experiment with femoral blood flow (3 μg/kg i.v., n = 6 (SE 5.2 printed)); 61.7% in the experiment on femoral blood flow (10 μg/kg i.v., n = 6 (SE 17.7 printed)); 62.2% in the experiment on femoral blood flow (printed 30 μmg/kg i.v., n = 6 (SE 28.7 printed)). Also, the “blood flow rate in the femoral artery” value in the experiment with femoral blood flow (intravenous injection of 1-10 μg/kg) is listed as “increased the blood flow rate in the femoral artery dose-dependently”. The “Lesion reduction rate in whole-stratum skin cut-off model” value in experiment [2] (1 day elapsed, control 26.4) worked out at 31.7%; in experiment [2] (2 days elapsed, control 36.9), 50.8%; in experiment [2] (3 days elapsed, control 45.5), 56.4%; in experiment [2] (5 days elapsed, control 66.8), 79.1%. Moreover, in experiment [2] (as compared with the control), the “curing of skin ulcer” value is “curing of skin ulcer is promoted”. Further, the IC50 in experiment [3] is 234 nM; in the experiment on canine coronary artery (Canis lupus familiaris, KCl-induced contraction, n=6), 67.3 nM. For the same compound, in the experiment on canine coronary artery (Table 3, in words), the “inhibitory action against KCl-induced contraction in the coronary artery” value is given as “concentration-dependent inhibitory action”. For the same compound, the “Inhibition rate, Coronary artery” value with canine coronary artery (line 1 of 5, printed 10^-9 M) was 6.1 ± 1.6%; with canine coronary artery (line 2 of 5, printed 10^-9 M) it was 23.3 ± 3.2%; in the experiment on canine coronary artery (line 3 of 5, printed 10^-9 M), 58.8 ± 3.9%; in the experiment on canine coronary artery (line 4 of 5, printed 10^-9 M) it was 86.7 ± 1.5%; in the experiment on canine coronary artery (line 5 of 5, printed 10^-9 M) it was 94.5 ± 1.3%. Also, the “Epinephrin-induced aggregation upon end of administration” value in experiment [4] (before administration 47.0%) came out at 31.8%. Besides, in experiment [4], the “Inhibition rate, Epinephrin-induced aggregation” value was determined as 39.6%.

The term IC50 denotes the point on the concentration scale where inhibition reaches its midpoint.

For the origin of these results see patent US5789439A, “Pharmaceutical use of forskolin derivatives” (Nippon Kayaku Kabushiki Kaisha, priority 1990, dated 1998).
